Measured values reported in ChEMBL document CHEMBL3352484, “Modified 2,4-diaminopyrimidine-based dihydrofolate reductase inhibitors as potential drug scaffolds against Bacillus anthracis” (Bioorg Med Chem, 2015).
In brackets after ≈: the same amount, converted by molar mass.

The molecules below were run on Bacillus anthracis (assay: Antimicrobial activity against Bacillus anthracis assessed as growth inhibition measured as turbidity).
Type: functional

Point of comparison: `CCCC1c2ccccc2C=NN1C(=O)/C=C/c1cc(Cc2cnc(N)nc2N)cc(OC)c1OCc1ccccc1` (racemic), MIC 4 µg/mL (≈ 7.11 µM). Against it:
- CCCC1c2ccccc2C=NN1C(=O)/C=C/c1cc(Cc2cnc(N)nc2N)cc(OCC)c1OCC (racemic) — the same, 4 µg/mL (≈ 7.77 µM)
- CCCC1c2ccccc2C=NN1C(=O)/C=C/c1cc(Cc2cnc(N)nc2N)cc(OCc2ccc(C(F)(F)F)cc2)c1OC (racemic) — 2-fold higher, 8 µg/mL (≈ 12.7 µM)
- COc1cc(C(=O)c2cnc(N)nc2N)cc(/C=C/C(=O)N2N=Cc3ccccc3C2C=C(C)C)c1OC (racemic) — higher, > 128 µg/mL
- CCOc1cc(Cc2cnc(N)nc2N)cc(/C=C/C(=O)N2N=Cc3ccccc3C2C=C(C)C)c1OCC (racemic) — 4-fold lower, 1 µg/mL (≈ 1.9 µM)
- CCCC1c2ccccc2C=NN1C(=O)/C=C/c1cc(Cc2cnc(N)nc2N)cc(OC(=O)c2ccc(OC(F)(F)F)cc2)c1OC (racemic) — 2-fold higher, 8 µg/mL (≈ 12.1 µM)
- CCCC1c2ccccc2C=NN1C(=O)/C=C/c1cc(Cc2cnc(N)nc2N)cc(OC(=O)c2ccccc2)c1OC (racemic) — the same, 4 µg/mL (≈ 6.94 µM)
- CCCC1c2ccccc2C=NN1C(=O)/C=C/c1cc(Cc2cnc(N)nc2N)cc(OC)c1OCC (racemic) — 2-fold lower, 2 µg/mL (≈ 4 µM)
- CCCC1c2ccccc2C=NN1C(=O)/C=C/c1cc(Cc2cnc(N)nc2N)cc(OCc2ccc(F)cc2)c1OC (racemic) — 2-fold higher, 8 µg/mL (≈ 13.8 µM)
- CCCOc1cc(Cc2cnc(N)nc2N)cc(/C=C/C(=O)N2N=Cc3ccccc3C2CCC)c1OC (racemic) — the same, 4 µg/mL (≈ 7.77 µM)
- CCCC1c2ccccc2C=NN1C(=O)/C=C/c1cc(Cc2cnc(N)nc2N)cc(OC(=O)c2ccc([N+](=O)[O-])cc2)c1OC (racemic) — 2-fold higher, 8 µg/mL (≈ 12.9 µM)
- CCOc1c(/C=C/C(=O)N2N=Cc3ccccc3C2C=C(C)C)cc(Cc2cnc(N)nc2N)cc1OC (racemic) — 8-fold lower, 0.5 µg/mL (≈ 0.975 µM)
- CCCC1c2ccccc2C=NN1C(=O)/C=C/c1cc(C(=O)c2cnc(N)nc2N)cc(OC)c1OC (racemic) — higher, > 128 µg/mL
- CCCC1c2ccccc2C=NN1C(=O)/C=C/c1cc(Cc2cnc(N)nc2N)cc(OC(=O)c2ccc(OC)cc2)c1OC (racemic) — 2-fold higher, 8 µg/mL (≈ 13.2 µM)
- COc1cc(Cc2cnc(N)nc2N)cc(OC)c1OC [TRIMETHOPRIM] — higher, > 2050 µg/mL
- CCCC1c2ccccc2C=NN1C(=O)/C=C/c1cc(Cc2cnc(N)nc2N)cc2c1OCO2 (racemic) — 8-fold higher, 32 µg/mL (≈ 68 µM)
